Assay results taken from US9845330B2, “6-nitro-2,3-dihydroimidazo[2,1-b]oxazoles and a process for the preparation thereof” (priority 2013, dated 2017).
Values after ≈ are worked out from the molar mass of the structure shown. Read-outs that look alike come from different tables or passages of the source.

Assays:
[1] = tested on: M. tuberculosis H37Rv; assay: Combination studies, checkerboard method; assay type: cell-based, Mycobacterium tuberculosis; details: for MIC with IA25: in combination with IA25; for MIC with IIA3: in combination with IIA3
Protocol: The efficacy of compounds IA25 and IIA3 (conc range 4 μg/ml to 0.007 μg/ml) in combination with currently used anti-TB drugs such as rifampicin, isoniazid and ethambutol (each drug tested at conc range 4 μg/ml to […]), wherein the ratio of drugs was ranging between 0.1% to 50%, was determined in vitro using checkerboard method. The checkerboard procedure was performed based on the MIC values by the broth microdilution method. The checkerboard method was performed in 96 well U bottom microtitre plates. 100 microliters of 4× concentration of drug was added to first column of the plate. 50 microliters from first column was transferred to second column and was serially diluted in horizontal manner upto column 10 of the plate. Seven dilutions of 4× concentration of compound were prepared in eppendorfs and fifty microliters of each concentration was added vertically starting from eleventh column of row eight to row second of the plate. First row of the plate served as drug control. 100 microliters of 1:10 diluted of 1 Mc Farland inoculum was added to each well of the plate. Plates were then incubated at 37° C. for 14 days. MIC of drug alone and in presence of compound and vice versa was observed visually. […] The FIC index value for each concentration of two-drug combination was calculated and the minimum value was adopted.

[2] = tested on: M. tuberculosis H37Rv (ATCC 27294); assay: MIC by broth dilution method, M. tuberculosis H37Rv; assay type: cell-based; details: Mycobacterium tuberculosis
[3] = Cytotoxicity assay (MTT) in macrophage J774 cells; assay type: cell-based; details: mouse, J774 macrophage cells; also called safety index
How it was run: (§1)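 J774 cells seeded at 3×10^4 cells/cm^2 in RPMI with FCS reduced to 5%, then exposed to compounds at 40 μg/ml for 24 hrs. MTT reduction read at 450 nm; percentage cytotoxicity calculated relative to untreated cells.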

[4] = tested on: macrophage J774 cells line; assay: Cytotoxicity assay (MTT) in macrophage J774 cells; assay type: cell-based; details: J774 cells, 24 hrs, MTT
How it was run: as §1

[5] = In vivo pharmacokinetics, oral, mice; design: species or system Balb/c mice; Ka: unit not given here; details: 5 mg/kg oral, plasma
Protocol: Compounds were administered orally to mice (Balb/c mice) at a dose of 5 mg/kg as a suspension in 0.5% CMC and Tween 80. Samples were derived from plasma at different time points i.e. 0.16 h, 0.5 h, 1 h, 2 h, 4 h, 6 h, 8 h and 24 h, which were then analysed by LC-MS/MS to generate the required pharmacokinetic parameters.

[6] = FIC A, drug in combination with IA25
[7] = FIC A, drug in combination with IIA3
[8] = 504 h, broth dilution, 3 weeks, read-out: MIC M. tb H37Rv
[9] = read-out: MIC value, text summary: sensitive H37Rv as well as MDR and XDR strains of M. tuberculosis

CC[C@@H](CO)NCCN[C@@H](CC)CO [Ethambutol, reference compound]
FIC (MIC combination/MIC alone) [1, 6]: FIC A = 0.25
FIC (MIC combination/MIC alone) [1, 7]: FIC A = 0.5
MIC alone ([1]; checkerboard): 1 mg/L
MIC with IA25 ([1]; checkerboard): 0.25 mg/L
MIC with IIA3 ([1]; checkerboard): 0.5 mg/L

C[C@]1(COc2cccc(-n3cc(COc4ccc(OC(F)(F)F)cc4)nn3)c2)Cn2cc([N+](=O)[O-])nc2O1 [IA33]
MIC [2, 8]: 0.12 mg/L (≈ 0.225 µM)
selectivity ratio at 24 h, 40 μg/ml [3]: > 10
Cytotoxicity [4]: >40 µg/mL
CLB [5]: 72 mL/h/kg
Ka [5]: 0.478
Vdarea [5]: 0.25 L/kg
t1/2absorption [5]: 1.448 h
Cmax ([5]; Balb/c, mouse, po, 5 mg/kg): 0.595 µM
AUC ([5]; Balb/c, mouse): 3.95 µM·h
Tmax ([5]; Balb/c, mouse, read-out: Tmax): 2 h

C[C@]1(COc2ccc(-c3cc(COc4ccc(OC(F)(F)F)cc4)on3)cc2)Cn2cc([N+](=O)[O-])nc2O1 [IC13, (R)-2-{4-[5-(4-trifluoromethoxyphenoxymethyl)isoxazol-3-yl]phenoxymethyl}-2,3-dihydro-2-methyl-6-nitroimidazo[2,1-b]oxazole]
MIC ([2]; 504 h, read-out: MIC M. tb H37Rv, broth dilution, 3 weeks): 0.12 mg/L (≈ 0.225 µM)
MIC [2, 9]: < 1 mg/L
selectivity ratio at 24 h, 40 μg/ml [3]: > 10
Cytotoxicity [4]: >40 µg/mL
CLB [5]: 3.3 mL/h/kg
Ka [5]: 1.21
Vdarea [5]: 0.13 L/kg
t1/2absorption [5]: 0.57 h
Cmax ([5]; Balb/c, mouse, po, 5 mg/kg): 2.53 µM
AUC ([5]; Balb/c, mouse): 33.7 µM·h
Tmax ([5]; Balb/c, mouse, read-out: Tmax): 2 h

C[C@]1(COc2ccc(NC(=O)Nc3ccc(C(F)(F)F)cc3)cc2)Cn2cc([N+](=O)[O-])nc2O1 [IIA3, (R)-1-(4-trifluoromethylphenyl)-3-{4-(2-methyl-6-nitro-2,3-dihydroimidazo[2,1-b]oxazol-2-yl)methoxyphenyl}urea]
MIC [2, 8]: 0.12 mg/L (≈ 0.251 µM)
MIC [2, 9]: < 1 mg/L
selectivity ratio at 24 h, 40 μg/ml [3]: > 10
Cytotoxicity [4]: >40 µg/mL
FIC (MIC combination/MIC alone) ([1]; FIC B, compound in combination with Ethambutol): FIC B = 0.25
FIC (MIC combination/MIC alone) ([1]; FIC B, compound in combination with INH): FIC B = 0.25
FIC (MIC combination/MIC alone) ([1]; FIC B, compound in combination with Rifampicin): FIC B = 0.25
MIC alone ([1]; checkerboard): 0.5 mg/L
MIC with Ethambutol ([1]; checkerboard, in combination with Ethambutol): 0.12 mg/L
MIC with INH ([1]; checkerboard, in combination with INH): 0.12 mg/L
MIC with Rifampicin ([1]; checkerboard, in combination with Rifampicin): 0.12 mg/L
FIC Index (FIC A + FIC B) ([1]; combination with Ethambutol): 0.75
FIC Index (FIC A + FIC B) ([1]; combination with INH): 0.75
FIC Index (FIC A + FIC B) ([1]; combination with Rifampicin): 0.5
Observations ([1]; combination with Rifampicin): synergistic effect

COc1ccc(NC(=O)Nc2ccc(OC[C@@]3(C)Cn4cc([N+](=O)[O-])nc4O3)cc2)cc1 [IIA5, (R)-1-(4-methoxyphenyl)-3-{4-(2-methyl-6-nitro-2,3-dihydroimidazo[2,1-b]oxazol-2-yl)methoxyphenyl}urea]
MIC [2, 8]: 1 mg/L (≈ 2.28 µM)
selectivity ratio at 24 h, 40 μg/ml [3]: > 10
Cytotoxicity [4]: >40 µg/mL

C[C@]1(COc2ccc(NC(=O)Nc3ccc(OC(F)(F)F)cc3)cc2)Cn2cc([N+](=O)[O-])nc2O1 [IIA6, (R)-1-(4-trifluoromethoxyphenyl)-3-{4-(2-methyl-6-nitro-2,3-dihydroimidazo[2,1-b]oxazol-2-yl)methoxyphenyl}urea]
MIC [2, 8]: 0.5 mg/L (≈ 1.01 µM)
MIC [2, 9]: < 1 mg/L
selectivity ratio at 24 h, 40 μg/ml [3]: > 10
Cytotoxicity [4]: >40 µg/mL

C[C@]1(COc2ccc(S(=O)(=O)N3CCN(c4cccc(Cl)c4)CC3)cc2)Cn2cc([N+](=O)[O-])nc2O1 [IIC3, (R)-2-{4-[4-(3-chlorophenyl)piperazin-1-yl]sulfonylphenoxymethyl}-2,3-dihydro-2-methyl-6-nitroimidazo[2,1-b]oxazole]
MIC [2, 8]: 8 mg/L (≈ 15 µM)
selectivity ratio at 24 h, 40 μg/ml [3]: > 10
Cytotoxicity [4]: >40 µg/mL

C[C@]1(COc2ccc(S(=O)(=O)N3CCN(c4ccc(OC(F)(F)F)cc4)CC3)cc2)Cn2cc([N+](=O)[O-])nc2O1 [IIC4, (R)-2-{4-[4-(4-trifluoromethoxyphenyl)piperazin-1-yl]sulfonylphenoxymethyl}-2,3-dihydro-2-methyl-6-nitroimidazo[2,1-b]oxazole]
MIC [2, 8]: 2 mg/L (≈ 3.43 µM)
selectivity ratio at 24 h, 40 μg/ml [3]: > 10
Cytotoxicity [4]: >40 µg/mL

CCOC(=O)N1CCN(S(=O)(=O)c2ccc(OC[C@@]3(C)Cn4cc([N+](=O)[O-])nc4O3)cc2)CC1 [IIC5, (R)-ethyl-{4-[4-(2-methyl-6-nitro-2,3-dihydroimidazo[2,1-b]oxazol-2yl)methoxyphenyl]sulfonyl}piperazine-1-carboxylate]
MIC [2, 8]: 2 mg/L (≈ 4.04 µM)
selectivity ratio at 24 h, 40 μg/ml [3]: > 10
Cytotoxicity [4]: >40 µg/mL

C[C@]1(COc2ccc(S(=O)(=O)N3CCN(C(=O)c4ccccc4)CC3)cc2)Cn2cc([N+](=O)[O-])nc2O1 [IIC6, (R)-{4-[4-(2-methyl-6-nitro-2,3-dihydroimidazo[2,1-b]oxazol-2yl)methoxyphenyl]sulfonyl}piperazine-1-yl(phenyl)methanone]
MIC [2, 8]: 2 mg/L (≈ 3.79 µM)
selectivity ratio at 24 h, 40 μg/ml [3]: > 10
Cytotoxicity [4]: >40 µg/mL

C[C@]1(COc2ccc(S(=O)(=O)N3CCCCC3)cc2)Cn2cc([N+](=O)[O-])nc2O1 [IIC7, (R)-2-{4-(piperidin-1-ylsulfonyl)phenoxymethyl}-2,3-dihydro-2-methyl-6-nitroimidazo[2,1-b]oxazole]
MIC [2, 8]: 1 mg/L (≈ 2.37 µM)
selectivity ratio at 24 h, 40 μg/ml [3]: > 10
Cytotoxicity [4]: >40 µg/mL

C[C@]1(COc2ccc(S(=O)(=O)N3CCC(c4ccccc4)CC3)cc2)Cn2cc([N+](=O)[O-])nc2O1 [IIC8, (R)-2-{4-[(4-phenylpiperidin-1-yl)sulfonyl]phenoxymethyl}-2,3-dihydro-2-methyl-6-nitroimidazo[2,1-b]oxazole]
MIC [2, 8]: 0.5 mg/L (≈ 1 µM)
MIC [2, 9]: 0.5 mg/L (≈ 1 µM)
selectivity ratio at 24 h, 40 μg/ml [3]: > 10
Cytotoxicity [4]: >40 µg/mL

C[C@]1(COc2ccc(S(=O)(=O)N3CCCC3)cc2)Cn2cc([N+](=O)[O-])nc2O1 [IIC9, (R)-2-{4-(pyrrolidin-1-ylsulfonyl)phenoxymethyl}-2,3-dihydro-2-methyl-6-nitroimidazo[2,1-b]oxazole]
MIC [2, 8]: 1 mg/L (≈ 2.45 µM)
selectivity ratio at 24 h, 40 μg/ml [3]: > 10
Cytotoxicity [4]: >40 µg/mL

C[C@]1(COc2ccc(S(=O)(=O)N3CCOCC3)cc2)Cn2cc([N+](=O)[O-])nc2O1 [IIC10, (R)-2-{4-(morpholinsulfonyl)phenoxymethyl}-2,3-dihydro-2-methyl-6-nitroimidazo[2,1-b]oxazole]
MIC [2, 8]: 0.5 mg/L (≈ 1.18 µM)
MIC [2, 9]: 0.5 mg/L (≈ 1.18 µM)
selectivity ratio at 24 h, 40 μg/ml [3]: > 10
Cytotoxicity [4]: >40 µg/mL

NNC(=O)c1ccncc1 [INH, isoniazid, reference compound]
FIC (MIC combination/MIC alone) [1, 6]: FIC A = 0.25
FIC (MIC combination/MIC alone) [1, 7]: FIC A = 0.5
MIC alone ([1]; checkerboard): 0.25 mg/L
MIC with IA25 ([1]; checkerboard): 0.06 mg/L
MIC with IIA3 ([1]; checkerboard): 0.12 mg/L

C[C@]1(COc2ccc(N3CCC(Oc4ccc(OC(F)(F)F)cc4)CC3)cc2)Cn2cc([N+](=O)[O-])nc2O1 [OPC-67683, reference compound]
CLB [5]: 4.3 mL/h/kg
Cmax [5]: 0.668 µM
Tmax [5]: 2.00 h
Vdarea [5]: 0.76 L/kg
t1/2absorption [5]: 0.64 h
AUC ([5]; Balb/c, mouse): 9.32 µM·h

CO[C@H]1/C=C/O[C@@]2(C)Oc3c(C)c(O)c4c(O)c(c(/C=N/N5CCN(C)CC5)c(O)c4c3C2=O)NC(=O)/C(C)=C\C=C\[C@H](C)[C@H](O)[C@@H](C)[C@@H](O)[C@@H](C)[C@H](OC(C)=O)[C@@H]1C [Rifampicin, reference compound]
FIC (MIC combination/MIC alone) [1, 6]: FIC A = 0.25
FIC (MIC combination/MIC alone) [1, 7]: FIC A = 0.25
MIC alone ([1]; checkerboard): 0.12 mg/L
MIC with IA25 ([1]; checkerboard): 0.03 mg/L
MIC with IIA3 ([1]; checkerboard): 0.06 mg/L
